This note sets out measurements from PubChem BioAssay (NCI).

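Values below derive from 48-hour exposures of cells grown in 96-well plates, with endpoints linearly interpolated between the two concentrations bracketing the appropriate inhibition level. Definition used: TGI = concentration required for complete inhibition of growth.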 Bounds are passed on as bounds.

The test system of the first assay is SF-295 CNS. The experiment in a line: NCI anticancer screen, dose series, 48 h.
Consider `CC(=O)OC1O[C@@H](C(C)(C)O)CC[C@@H]1[C@H]1CC[C@@]2(C)C3=C(CC[C@]12C)[C@@]1(C)C[C@@H](OC(=O)CC(C)(O)CC(=O)O)[C@H](OC(C)=O)C(C)(C)C1CC3` (stereo partly specified), for which the TGI stood at 32.4 µM.

In turn, `O=C1NN=C2C=C(c3ccc(Cl)cc3)CC(c3cccc(Cl)c3)C12` (stereo unspecified) returned a TGI of 38.4 µM.

The subject of another assay is HT29 colon. Kind of assay: NCI anticancer screen, dose series, 48 h.
For the compound `COC(=O)C1(OC(=O)Sc2ccccc2)CCN(C)CC1`, the TGI amounted to 58 µM.

With `CC(CC(=O)O)C(C(=O)O)C(=O)O` (stereo unspecified), the TGI was greater than 100 µM.

On to `CC(=O)OC1O[C@@H](C(C)(C)O)CC[C@@H]1[C@H]1CC[C@@]2(C)C3=C(CC[C@]12C)[C@@]1(C)C[C@@H](OC(=O)CC(C)(O)CC(=O)O)[C@H](OC(C)=O)C(C)(C)C1CC3` (stereo partly specified), for which the TGI is 36.4 µM.

The compound `O=C1NN=C2C=C(c3ccc(Cl)cc3)CC(c3cccc(Cl)c3)C12` (stereo unspecified) displayed a TGI of 51.4 µM.

The next assay concerns SK-MEL-2 melanoma. Kind of assay: NCI anticancer screen, dose series, 48 h.
`COC(=O)C1(OC(=O)Sc2ccccc2)CCN(C)CC1`: the TGI was greater than 100 µM.

The compound `CC(CC(=O)O)C(C(=O)O)C(=O)O` (stereo unspecified) registered a TGI greater than 100 µM.

Regarding `CC(=O)OC1O[C@@H](C(C)(C)O)CC[C@@H]1[C@H]1CC[C@@]2(C)C3=C(CC[C@]12C)[C@@]1(C)C[C@@H](OC(=O)CC(C)(O)CC(=O)O)[C@H](OC(C)=O)C(C)(C)C1CC3` (stereo partly specified), the TGI was determined as 38.7 µM.

In the case of `O=C1NN=C2C=C(c3ccc(Cl)cc3)CC(c3cccc(Cl)c3)C12` (stereo unspecified), the TGI is 45.3 µM.

A further assay deals with BT-549 breast. Kind of assay: NCI anticancer screen, dose series, 48 h.
For the compound `COC(=O)C1(OC(=O)Sc2ccccc2)CCN(C)CC1`, the TGI amounted to 7.04 µM.

For the compound `CC(CC(=O)O)C(C(=O)O)C(=O)O` (stereo unspecified), the TGI was greater than 100 µM.

`CC(=O)OC1O[C@@H](C(C)(C)O)CC[C@@H]1[C@H]1CC[C@@]2(C)C3=C(CC[C@]12C)[C@@]1(C)C[C@@H](OC(=O)CC(C)(O)CC(=O)O)[C@H](OC(C)=O)C(C)(C)C1CC3` (stereo partly specified) showed a TGI of 29.9 µM.

Take `O=C1NN=C2C=C(c3ccc(Cl)cc3)CC(c3cccc(Cl)c3)C12` (stereo unspecified): the TGI is greater than 100 µM.

Another assay deals with CCRF-CEM leukemia. The experiment in a line: NCI anticancer screen, dose series, 48 h.
Take `COC(=O)C1(OC(=O)Sc2ccccc2)CCN(C)CC1`: the TGI worked out at 19.7 µM.

`CC(CC(=O)O)C(C(=O)O)C(=O)O` (stereo unspecified) yielded a TGI greater than 100 µM.

For the compound `CC(=O)OC1O[C@@H](C(C)(C)O)CC[C@@H]1[C@H]1CC[C@@]2(C)C3=C(CC[C@]12C)[C@@]1(C)C[C@@H](OC(=O)CC(C)(O)CC(=O)O)[C@H](OC(C)=O)C(C)(C)C1CC3` (stereo partly specified), the TGI was 41.6 µM.

For the compound `O=C1NN=C2C=C(c3ccc(Cl)cc3)CC(c3cccc(Cl)c3)C12` (stereo unspecified), the TGI was 71.7 µM.

A further assay concerns SN12C renal. The experiment in a line: NCI anticancer screen, dose series, 48 h.
For the compound `COC(=O)C1(OC(=O)Sc2ccccc2)CCN(C)CC1`, the TGI was found to be 21.3 µM.

On to `CC(CC(=O)O)C(C(=O)O)C(=O)O` (stereo unspecified), for which the TGI was greater than 100 µM.

On to `CC(=O)OC1O[C@@H](C(C)(C)O)CC[C@@H]1[C@H]1CC[C@@]2(C)C3=C(CC[C@]12C)[C@@]1(C)C[C@@H](OC(=O)CC(C)(O)CC(=O)O)[C@H](OC(C)=O)C(C)(C)C1CC3` (stereo partly specified), for which the TGI turned out to be 36.2 µM.

With `O=C1NN=C2C=C(c3ccc(Cl)cc3)CC(c3cccc(Cl)c3)C12` (stereo unspecified), the TGI was determined as 57.5 µM.

In a further assay the test system is CAKI-1 renal. Kind of assay: NCI anticancer screen, dose series, 48 h.
In the case of `COC(=O)C1(OC(=O)Sc2ccccc2)CCN(C)CC1`, the TGI stood at 27.8 µM.

`CC(CC(=O)O)C(C(=O)O)C(=O)O` (stereo unspecified) registered a TGI greater than 100 µM.

`CC(=O)OC1O[C@@H](C(C)(C)O)CC[C@@H]1[C@H]1CC[C@@]2(C)C3=C(CC[C@]12C)[C@@]1(C)C[C@@H](OC(=O)CC(C)(O)CC(=O)O)[C@H](OC(C)=O)C(C)(C)C1CC3` (stereo partly specified) yielded a TGI of 29.4 µM.

`O=C1NN=C2C=C(c3ccc(Cl)cc3)CC(c3cccc(Cl)c3)C12` (stereo unspecified) registered a TGI greater than 100 µM.

The test system of the next assay is NCI-H460 lung. Kind of assay: NCI anticancer screen, dose series, 48 h.
`COC(=O)C1(OC(=O)Sc2ccccc2)CCN(C)CC1` displayed a TGI of 58.1 µM.

`CC(CC(=O)O)C(C(=O)O)C(=O)O` (stereo unspecified) returned a TGI greater than 100 µM.

`CC(=O)OC1O[C@@H](C(C)(C)O)CC[C@@H]1[C@H]1CC[C@@]2(C)C3=C(CC[C@]12C)[C@@]1(C)C[C@@H](OC(=O)CC(C)(O)CC(=O)O)[C@H](OC(C)=O)C(C)(C)C1CC3` (stereo partly specified) yielded a TGI of 32.7 µM.

Turning to `O=C1NN=C2C=C(c3ccc(Cl)cc3)CC(c3cccc(Cl)c3)C12` (stereo unspecified), the TGI came to 47.2 µM.

A further assay has as its system MDA-MB-435. Kind of assay: NCI anticancer screen, dose series, 48 h.
`COC(=O)C1(OC(=O)Sc2ccccc2)CCN(C)CC1` showed a TGI of 36.3 µM.

Compound `CC(CC(=O)O)C(C(=O)O)C(=O)O` (stereo unspecified) came in with a TGI greater than 100 µM.

`CC(=O)OC1O[C@@H](C(C)(C)O)CC[C@@H]1[C@H]1CC[C@@]2(C)C3=C(CC[C@]12C)[C@@]1(C)C[C@@H](OC(=O)CC(C)(O)CC(=O)O)[C@H](OC(C)=O)C(C)(C)C1CC3` (stereo partly specified) had a TGI of 31.4 µM.

`O=C1NN=C2C=C(c3ccc(Cl)cc3)CC(c3cccc(Cl)c3)C12` (stereo unspecified): the TGI is 40.2 µM.

The test system of the next assay is RPMI-8226 leukemia. Kind of assay: NCI anticancer screen, dose series, 48 h.
With `COC(=O)C1(OC(=O)Sc2ccccc2)CCN(C)CC1`, the TGI is 35 µM.

Compound `CC(CC(=O)O)C(C(=O)O)C(=O)O` (stereo unspecified) came in with a TGI greater than 100 µM.

For `CC(=O)OC1O[C@@H](C(C)(C)O)CC[C@@H]1[C@H]1CC[C@@]2(C)C3=C(CC[C@]12C)[C@@]1(C)C[C@@H](OC(=O)CC(C)(O)CC(=O)O)[C@H](OC(C)=O)C(C)(C)C1CC3` (stereo partly specified), the TGI is 53.8 µM.

`O=C1NN=C2C=C(c3ccc(Cl)cc3)CC(c3cccc(Cl)c3)C12` (stereo unspecified) displayed a TGI of 57 µM.

The subject of the next assay is RXF 393 renal. Kind of assay: NCI anticancer screen, dose series, 48 h.
The compound `COC(=O)C1(OC(=O)Sc2ccccc2)CCN(C)CC1` returned a TGI of 34.9 µM.

`CC(CC(=O)O)C(C(=O)O)C(=O)O` (stereo unspecified) had a TGI greater than 100 µM.

With `O=C1NN=C2C=C(c3ccc(Cl)cc3)CC(c3cccc(Cl)c3)C12` (stereo unspecified), the TGI came out at 38.5 µM.

In a further assay the test system is OVCAR-4 ovarian. Kind of assay: NCI anticancer screen, dose series, 48 h.
Take `COC(=O)C1(OC(=O)Sc2ccccc2)CCN(C)CC1`: the TGI is greater than 100 µM.

As for `CC(CC(=O)O)C(C(=O)O)C(=O)O` (stereo unspecified), the TGI was greater than 100 µM.

`CC(=O)OC1O[C@@H](C(C)(C)O)CC[C@@H]1[C@H]1CC[C@@]2(C)C3=C(CC[C@]12C)[C@@]1(C)C[C@@H](OC(=O)CC(C)(O)CC(=O)O)[C@H](OC(C)=O)C(C)(C)C1CC3` (stereo partly specified): the TGI worked out at 37.6 µM.

On to `O=C1NN=C2C=C(c3ccc(Cl)cc3)CC(c3cccc(Cl)c3)C12` (stereo unspecified), for which the TGI was 66.5 µM.

The subject of a further assay is MDA-MB-231 breast. The experiment in a line: NCI anticancer screen, dose series, 48 h.
`COC(=O)C1(OC(=O)Sc2ccccc2)CCN(C)CC1` yielded a TGI of 59 µM.

As for `CC(CC(=O)O)C(C(=O)O)C(=O)O` (stereo unspecified), the TGI is greater than 100 µM.

`CC(=O)OC1O[C@@H](C(C)(C)O)CC[C@@H]1[C@H]1CC[C@@]2(C)C3=C(CC[C@]12C)[C@@]1(C)C[C@@H](OC(=O)CC(C)(O)CC(=O)O)[C@H](OC(C)=O)C(C)(C)C1CC3` (stereo partly specified) showed a TGI of 45.5 µM.

Take `O=C1NN=C2C=C(c3ccc(Cl)cc3)CC(c3cccc(Cl)c3)C12` (stereo unspecified): the TGI turned out to be 42.7 µM.

The next assay has as its system HCC-2998 colon. The experiment in a line: NCI anticancer screen, dose series, 48 h.
`COC(=O)C1(OC(=O)Sc2ccccc2)CCN(C)CC1` registered a TGI greater than 73 µM.

The compound `CC(=O)OC1O[C@@H](C(C)(C)O)CC[C@@H]1[C@H]1CC[C@@]2(C)C3=C(CC[C@]12C)[C@@]1(C)C[C@@H](OC(=O)CC(C)(O)CC(=O)O)[C@H](OC(C)=O)C(C)(C)C1CC3` (stereo partly specified) registered a TGI of 36.8 µM.

In the case of `O=C1NN=C2C=C(c3ccc(Cl)cc3)CC(c3cccc(Cl)c3)C12` (stereo unspecified), the TGI worked out at 33.5 µM.

In the next assay the test system is KM12 colon. The experiment in a line: NCI anticancer screen, dose series, 48 h.
`COC(=O)C1(OC(=O)Sc2ccccc2)CCN(C)CC1` displayed a TGI greater than 47.4 µM.

Compound `CC(CC(=O)O)C(C(=O)O)C(=O)O` (stereo unspecified) registered a TGI greater than 100 µM.

For `CC(=O)OC1O[C@@H](C(C)(C)O)CC[C@@H]1[C@H]1CC[C@@]2(C)C3=C(CC[C@]12C)[C@@]1(C)C[C@@H](OC(=O)CC(C)(O)CC(=O)O)[C@H](OC(C)=O)C(C)(C)C1CC3` (stereo partly specified), the TGI is 44.9 µM.

`O=C1NN=C2C=C(c3ccc(Cl)cc3)CC(c3cccc(Cl)c3)C12` (stereo unspecified) registered a TGI greater than 100 µM.
